Values joined by “and” are separate entries in the source; they are usually repeats but may differ in a detail not shown here. Equal entries are not always repeated.
The molecules below were run against T1, Alpha-1A adrenergic receptor (Canis lupus familiaris, UniProt O77621).
T1 sequence (O77621 whole entry): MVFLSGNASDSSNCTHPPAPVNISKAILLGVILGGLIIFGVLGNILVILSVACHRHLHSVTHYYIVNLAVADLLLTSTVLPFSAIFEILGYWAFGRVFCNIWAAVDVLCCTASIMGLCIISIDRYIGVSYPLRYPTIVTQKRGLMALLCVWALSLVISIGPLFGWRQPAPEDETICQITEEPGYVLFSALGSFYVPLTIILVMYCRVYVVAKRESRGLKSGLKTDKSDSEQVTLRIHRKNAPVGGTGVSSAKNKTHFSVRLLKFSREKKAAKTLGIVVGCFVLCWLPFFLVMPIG

SMILES | Ki
CNCC(O)c1ccc(O)c(O)c1 (stereo not drawn) [EPINEPHRINE] | 110 nM and 30 nM
NCC(O)c1ccc(O)c(O)c1 (stereo not drawn) [Noradrenaline,(+)] | 178 nM and 67 nM
CNC[C@H](O)c1cccc(O)c1 [PHENYLEPHRINE] | 901 nM and 213 nM
COc1cc2nc(N3CCN(C(=O)c4ccco4)CC3)nc(N)c2cc1OC [[3H]-Minipress] | 0.02 nM and 0.01 nM
COC(=O)[C@@H]1[C@H]2C[C@H]3c4[nH]c5ccccc5c4CCN3C[C@@H]2CC[C@@H]1O [yohimbic acid methyl ester] | 32 nM and 13.4 nM
Clc1cccc(Cl)c1N=C1NCCN1 [2-(2,6-dichloroanilino)-2-imidazoline] | 37 nM

Second part, the molecule after the results:

Ki | SMILES
2.55 nM and 1.27 nM | Cc1ccc(N(CC2=NCCN2)c2cccc(O)c2)cc1 [SMR000059054]
33 nM and 9 nM | Cc1cc(C(C)(C)C)c(O)c(C)c1CC1=NCCN1 [SMR000059324]
